Measurements reported in the supplement of paper PMC11061612.

Key:
Assay in all cases: combination Emax (second highest fraction inhibited in the dose matrix, 72 h); higher = more inhibition; extreme values may be limits of the assay
[1] = test system: HCC1500 (Breast Carcinoma)
Procedure, shortened: (§1)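 Bliss excess equals the observed combination effect minus the expected value EA + EB − EA·EB, where EA and EB are the effects of each agent alone. Combination Emax is the second-highest inhibition within the matrix. Inhibition was scaled from CellTiter-Glo 2.0 luminescence, with 0 set by vehicle wells and 1 by blank wells, after 72 hours of two-drug dosing of cells plated in 1536-well plates.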

[2] = test system: NCI-H1993 (Lung Adenocarcinoma)
Procedure, shortened: as §1

[3] = test system: NCI-H650 (Lung Adenocarcinoma)
Procedure, shortened: as §1

[4] = test system: MOG-G-UVW (Low Grade Glioma)
Procedure, shortened: as §1

Row | SMILES | combination Emax [1] | combination Emax [2] | combination Emax [3] | combination Emax [4]
1 | CN(C)CCCOc1ccc(-c2ccc3ncc4c(c3c2)n(C2CCOCC2)c(=O)n4C)cn1 [AZD0156] + C=CCn1c(=O)c2cnc(Nc3ccc(N4CCN(C)CC4)cc3)nc2n1-c1cccc(C(C)(C)O)n1 [AZD1775] (first compound max 1 µM, partner max 1 µM) | 0.283 | 0.586 | 0.263 | 0.744
2 | CN(C)CCCOc1ccc(-c2ccc3ncc4c(c3c2)n(C2CCOCC2)c(=O)n4C)cn1 [AZD0156] + CCN(CCO)CCCOc1ccc2c(Nc3cc(CC(=O)Nc4cccc(F)c4)[nH]n3)ncnc2c1 [AZD2811] (first compound max 1 µM, 7x7, partner max 1 µM) | 0.298 | 0.288 | 0.124 | 0.615
3 | CN(C)CCCOc1ccc(-c2ccc3ncc4c(c3c2)n(C2CCOCC2)c(=O)n4C)cn1 [AZD0156] + C[C@@H]1COCCN1C2=NC(=NC(=C2)C3(CC3)[S@](=N)(=O)C)C4=C5C=CNC5=NC=C4 [AZD6738] (first compound max 1 µM, 7x7, partner max 10 µM) | 0.298 | 0.616 | 0.226 | 0.816
4 | C=CCn1c(=O)c2cnc(Nc3ccc(N4CCN(C)CC4)cc3)nc2n1-c1cccc(C(C)(C)O)n1 [AZD1775] + CCc1c2c(nc3ccc(O)cc13)-c1cc3c(c(=O)n1C2)COC(=O)[C@]3(O)CC [SN-38] (first compound max 1 µM, partner max 0.3 µM) | – | 0.739 | – | 0.945
5 | C=CCn1c(=O)c2cnc(Nc3ccc(N4CCN(C)CC4)cc3)nc2n1-c1cccc(C(C)(C)O)n1 [AZD1775] + Nc1ccn([C@@H]2O[C@H](CO)[C@@H](O)C2(F)F)c(=O)n1 [Gemcitabine] (first compound max 1 µM, partner max 0.3 µM) | – | 0.905 | – | 0.938
6 | CN(CCO)CC[C@H](CSc1ccccc1)Nc1ccc(S(=O)(=O)NC(=O)c2ccc(N3CCC([C@@H](O)c4ccccc4-c4ccc(Cl)cc4)CC3)cc2)cc1S(=O)(=O)C(F)(F)F [AZD4320] + C=CCn1c(=O)c2cnc(Nc3ccc(N4CCN(C)CC4)cc3)nc2n1-c1cccc(C(C)(C)O)n1 [AZD1775] (first compound max 1 µM, partner max 1 µM) | 0.995 | 0.927 | 0.564 | –
7 | CN(CCO)CC[C@H](CSc1ccccc1)Nc1ccc(S(=O)(=O)NC(=O)c2ccc(N3CCC([C@@H](O)c4ccccc4-c4ccc(Cl)cc4)CC3)cc2)cc1S(=O)(=O)C(F)(F)F [AZD4320] + CS(=O)(=O)CCNCc1ccc(-c2ccc3ncnc(Nc4ccc(OCc5cccc(F)c5)c(Cl)c4)c3c2)o1 [Lapatinib] (first compound max 1 µM, 7x7, partner max 10 µM) | – | 0.943 | – | 0.298
8 | Cc1c2c(nn1C)CSCc1cc(n(C)n1)CSc1cc(c3ccccc3c1)OCCCc1c(C(=O)O)n(C)c3c-2c(Cl)ccc13 [AZD5991] + CC(=O)O[C@H]1C(=O)[C@@]2(C)[C@H]([C@H](OC(=O)c3ccccc3)[C@]3(O)C[C@H](OC(=O)[C@H](O)[C@@H](NC(=O)c4ccccc4)c4ccccc4)C(C)=C1C3(C)C)[C@]1(OC(C)=O)CO[C@@H]1C[C@@H]2O [Paclitaxel] (first compound max 1 µM, 7x7, partner max 3 µM) | – | 0.863 | – | 0.986
9 | Cc1c2c(nn1C)CSCc1cc(n(C)n1)CSc1cc(c3ccccc3c1)OCCCc1c(C(=O)O)n(C)c3c-2c(Cl)ccc13 [AZD5991] + CS(=O)(=O)CCNCc1ccc(-c2ccc3ncnc(Nc4ccc(OCc5cccc(F)c5)c(Cl)c4)c3c2)o1 [Lapatinib] (first compound max 1 µM, 7x7, partner max 10 µM) | – | 0.433 | – | 0.311
10 | Cc1c2c(nn1C)CSCc1cc(n(C)n1)CSc1cc(c3ccccc3c1)OCCCc1c(C(=O)O)n(C)c3c-2c(Cl)ccc13 [AZD5991] + Nc1ccn([C@@H]2O[C@H](CO)[C@@H](O)C2(F)F)c(=O)n1 [Gemcitabine] (first compound max 1 µM, 7x7, partner max 0.3 µM) | – | 0.902 | – | 0.857
11 | C[C@@H]1COCCN1c1cc(C2([S@](C)(=N)=O)CC2)nc(-c2ccnc3[nH]ccc23)n1 [AZD6738] + C1CC(C1)(C(=O)[O-])C(=O)[O-].N.N.[Pt+2] [Carboplatin] (first compound max 10 µM, 7x7, partner max 10 µM) | – | 0.547 | – | 0.723
12 | C[C@@H]1COCCN1c1cc(C2([S@](C)(=N)=O)CC2)nc(-c2ccnc3[nH]ccc23)n1 [AZD6738] + Nc1ccn([C@@H]2O[C@H](CO)[C@@H](O)C2(F)F)c(=O)n1 [Gemcitabine] (first compound max 10 µM, 7x7, partner max 0.3 µM) | – | 0.939 | – | 0.967
13 | C[C@@H](Nc1cc(F)cc(F)c1)c1cc(C(=O)N(C)C)cc2c(=O)cc(N3CCOCC3)oc12 [AZD8186] + C1CN(CCC1(C(=O)N[C@@H](CCO)C2=CC=C(C=C2)Cl)N)C3=NC=NC4=C3C=CN4 [AZD5363] (first compound max 10 µM, 7x7, partner max 10 µM) | – | 0.636 | – | 0.621
14 | C[C@@H](Nc1cc(F)cc(F)c1)c1cc(C(=O)N(C)C)cc2c(=O)cc(N3CCOCC3)oc12 [AZD8186] + CC(=O)c1c(C)c2cnc(Nc3ccc(N4CCNCC4)cn3)nc2n(C2CCCC2)c1=O [Palbociclib] (first compound max 10 µM, 7x7, partner max 10 µM) | – | 0.578 | – | 0.718
15 | C[C@@H](Oc1cc(-c2cnn(C3CCNCC3)c2)cnc1N)c1c(Cl)ccc(F)c1Cl [Crizotinib] + CC1=C(C(=CC=C1)Cl)NC(=O)C2=CN=C(S2)NC3=CC(=NC(=N3)C)N4CCN(CC4)CCO [Dasatinib] (first compound max 10 µM, 7x7, partner max 2 µM) | – | 0.811 | – | 0.928
16 | C[C@@H](Oc1cc(-c2cnn(C3CCNCC3)c2)cnc1N)c1c(Cl)ccc(F)c1Cl [Crizotinib] + Cn1cnc2c(F)c(Nc3ccc(Br)cc3Cl)c(C(=O)NOCCO)cc21 [Selumetinib] (first compound max 10 µM, 7x7, partner max 10 µM) | – | 0.871 | – | 0.77
17 | CS(=O)(=O)CCNCc1ccc(-c2ccc3ncnc(Nc4ccc(OCc5cccc(F)c5)c(Cl)c4)c3c2)o1 [Lapatinib] + Cn1cnc2c(F)c(Nc3ccc(Br)cc3Cl)c(C(=O)NOCCO)cc21 [Selumetinib] (first compound max 10 µM, 7x7, partner max 10 µM) | – | 0.73 | – | 0.469
18 | O=C(c1cc(Cc2n[nH]c(=O)c3ccccc23)ccc1F)N1CCN(C(=O)C2CC2)CC1 [Olaparib] + CC1(C)CCC(CN2CCN(c3ccc(C(=O)NS(=O)(=O)c4ccc(NCC5CCOCC5)c([N+](=O)[O-])c4)c(Oc4cnc5[nH]ccc5c4)c3)CC2)=C(c2ccc(Cl)cc2)C1 [Venetoclax] (first compound max 10 µM, 7x7, partner max 1 µM) | – | 0.0726 | – | 0.257
19 | O=C(c1cc(Cc2n[nH]c(=O)c3ccccc23)ccc1F)N1CCN(C(=O)C2CC2)CC1 [Olaparib] + CN(CC[C@H](CSC1=CC=CC=C1)NC2=C(C=C(C=C2)S(=O)(=O)NC(=O)C3=CC=C(C=C3)N4CCC(CC4)[C@H](C5=CC=CC=C5C6=CC=C(C=C6)Cl)O)S(=O)(=O)C(F)(F)F)CCO [AZD4320] (first compound max 10 µM, 7x7, partner max 1 µM) | – | 0.595 | – | 0.344
20 | O=C(c1cc(Cc2n[nH]c(=O)c3ccccc23)ccc1F)N1CCN(C(=O)C2CC2)CC1 [Olaparib] + COc1nnc2ccc(N3CCC(c4ccc(OCCN5CCN(C)C(=O)[C@H]5C)cc4)CC3)nn12 [AZD5153] (first compound max 10 µM, 7x7, partner max 1 µM) | – | 0.459 | – | 0.641
21 | O=C(c1cc(Cc2n[nH]c(=O)c3ccccc23)ccc1F)N1CCN(C(=O)C2CC2)CC1 [Olaparib] + Cc1c2c(nn1C)CSCc1cc(n(C)n1)CSc1cc(c3ccccc3c1)OCCCc1c(C(=O)O)n(C)c3c-2c(Cl)ccc13 [AZD5991] (first compound max 10 µM, 7x7, partner max 1 µM) | – | 0.124 | – | 0.408
22 | CCc1c2c(nc3ccc(O)cc13)-c1cc3c(c(=O)n1C2)COC(=O)[C@]3(O)CC [SN-38] + O=C(c1cc(Cc2n[nH]c(=O)c3ccccc23)ccc1F)N1CCN(C(=O)C2CC2)CC1 [Olaparib] (first compound max 0.3 µM, 7x7, partner max 10 µM) | 0.873 | 0.635 | – | 0.825
23 | Cc1nc(-c2cn3c(n2)-c2ccc(-c4cnn(C(C)(C)C(N)=O)c4)cc2OCC3)n(C(C)C)n1 [Taselisib] + O=C(Nc1ccc2[nH]nc(-c3ccncc3)c2c1)[C@@H]1CCN(CC(=O)N2CCN(c3ccc(-c4ncccn4)cc3)CC2)C1 [SCH772984] (first compound max 10 µM, 7x7, partner max 5 µM) | – | 0.886 | – | 0.884
24 | CC1(C)CCC(CN2CCN(c3ccc(C(=O)NS(=O)(=O)c4ccc(NCC5CCOCC5)c([N+](=O)[O-])c4)c(Oc4cnc5[nH]ccc5c4)c3)CC2)=C(c2ccc(Cl)cc2)C1 [Venetoclax] + CS(=O)(=O)CCNCc1ccc(-c2ccc3ncnc(Nc4ccc(OCc5cccc(F)c5)c(Cl)c4)c3c2)o1 [Lapatinib] (first compound max 1 µM, 7x7, partner max 10 µM) | – | 0.262 | – | 0.213
